We go through 6 compounds from paper PMC3944508, “Six New Tetraprenylated Alkaloids from the South China Sea Gorgonian Echinogorgia pseudossapo” (Marine Drugs, 2014).

The structures appear in SMILES notation.

Assay type in all cases: biochemical
The target of one test is PDE5A (Homo sapiens, UniProt O76074). Briefly: in vitro PDE inhibition assay, % inhibition at […]. The note with it: read-out: Inhibition (%) of Compounds at 50 μM / PDE5A.
Test [1] concerns the target T1, PDE4D (phosphodiesterase-4D) (Homo sapiens, UniProt Q08499). Put plainly: in vitro PDE inhibition assay (previously reported method).
In test [2] the target is T1, PDE4D (phosphodiesterase-4D). Put plainly: in vitro PDE inhibition assay, % inhibition at […]. The note with it: read-out: Inhibition (%) of Compounds at 50 μM / PDE4D.

For orientation: IC50 means the point on the concentration scale where inhibition reaches its midpoint. Low readings indicate inhibition by little substance, high ones a need for much substance.

T1 sequence (Q08499 whole entry): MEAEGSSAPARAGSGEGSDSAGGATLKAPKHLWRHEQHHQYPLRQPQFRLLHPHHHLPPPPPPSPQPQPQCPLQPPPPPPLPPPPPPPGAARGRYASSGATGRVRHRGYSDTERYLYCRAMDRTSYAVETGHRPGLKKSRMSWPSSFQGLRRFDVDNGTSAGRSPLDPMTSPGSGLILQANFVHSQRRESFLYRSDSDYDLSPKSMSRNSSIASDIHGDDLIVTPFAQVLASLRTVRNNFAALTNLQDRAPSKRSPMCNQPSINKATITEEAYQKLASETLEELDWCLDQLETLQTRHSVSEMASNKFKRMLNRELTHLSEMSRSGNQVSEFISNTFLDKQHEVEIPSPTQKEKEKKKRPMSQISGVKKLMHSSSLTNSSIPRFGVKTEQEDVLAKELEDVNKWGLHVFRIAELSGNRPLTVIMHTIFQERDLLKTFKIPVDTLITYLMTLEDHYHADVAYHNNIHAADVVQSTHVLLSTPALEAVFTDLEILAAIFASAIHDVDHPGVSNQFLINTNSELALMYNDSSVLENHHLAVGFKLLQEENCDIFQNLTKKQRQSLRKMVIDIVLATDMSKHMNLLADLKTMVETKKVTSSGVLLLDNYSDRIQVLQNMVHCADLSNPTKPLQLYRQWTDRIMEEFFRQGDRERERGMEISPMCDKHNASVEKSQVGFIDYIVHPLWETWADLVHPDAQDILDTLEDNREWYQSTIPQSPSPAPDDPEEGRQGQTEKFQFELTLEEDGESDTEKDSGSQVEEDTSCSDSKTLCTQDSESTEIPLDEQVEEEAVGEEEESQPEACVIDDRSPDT

Regarding `CC(C)=CC(=O)C/C(C)=C/CC/C(C)=C/CC/C(C)=C/Cn1cnc2c1c(=O)ncn2C` [compound 1, malonganenone L], the inhibition at 50 µM at PDE5A was found to be 53%. In test [1], this compound returned an IC50 of 8.5 µM.

For `CC(C)=CC(=O)C/C(C)=C\CC/C(C)=C/CC/C(C)=C/Cn1cnc2c1c(=O)ncn2C` [compound 2, malonganenone M], in test [2], the inhibition at 50 µM amounted to 72%. Take `CC(C)=CC(=O)/C=C(\C)CCC/C(C)=C/CC/C(C)=C/Cn1cnc2c1c(=O)ncn2C` [compound 3, malonganenone N]: the inhibition at 50 µM in test [2] is 81%. Take `CNC(=O)c1c(N(C)C=O)ncn1C/C=C(\C)CC/C=C(\C)CC/C=C(\C)CC(=O)C=C(C)C` [compound 4, malonganenone O]: in test [2], the inhibition at 50 µM is 79%. In the case of `CNC(=O)c1c(N(C)C=O)ncn1C/C=C(\C)CC/C=C(\C)CC/C=C(/C)CC(=O)C=C(C)C` [compound 5, malonganenone P], the inhibition at 50 µM in test [2] is 75%. The compound `CNC(=O)c1c(N(C)C=O)ncn1C/C=C(\C)CC/C=C(\C)CCC/C(C)=C\C(=O)C=C(C)C` [compound 6, malonganenone Q] returned an IC50 in test [1] of 20.3 µM.
